PubChem BioAssay AID200 (DTP/NCI, 2004)
Where “and” joins values, the source holds several entries; their conditions need not be identical. Equal values may be shown once. Inconclusive results and toxic doses are left out. Rule for the calls: active = survival T/C of 150% or more; inactive = T/C below 125% in these data.

System: B6C3F1 mice, B16 melanoma ip, median survival T/C
Test: NCI In Vivo Anticancer Drug Screen. Data for tumor model B16 Melanoma (intraperitoneal) in B6C3F1 mice
Conditions: endpoint: median survival time, higher = longer survival
Procedure, shortened: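 Values are T/C ratios: the measurement in treated animals divided by that in vehicle-treated controls, using survival or tumor size in mice carrying transplantable tumors.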

[1] = dose: 5.0 mg/kg/injection, schedule: Q01DX009 (ip), vehicle: saline with Tween-80
[2] = dose: 10.0 mg/kg/injection, schedule: Q01DX009 (ip), vehicle: saline with Tween-80
[3] = dose: 20.0 mg/kg/injection, schedule: Q01DX009 (ip), vehicle: saline with Tween-80
[4] = dose: 1.25 mg/kg/injection, schedule: Q01DX009 (ip), vehicle: Klucel (hydroxypropylcellulose) (HPC)
[5] = dose: 2.5 mg/kg/injection, schedule: Q01DX009 (ip), vehicle: Klucel (hydroxypropylcellulose) (HPC)
[6] = dose: 5.0 mg/kg/injection, schedule: Q01DX009 (ip), vehicle: Klucel (hydroxypropylcellulose) (HPC)
[7] = dose: 10.0 mg/kg/injection, schedule: Q01DX009 (ip), vehicle: Klucel (hydroxypropylcellulose) (HPC)
[8] = dose: 20.0 mg/kg/injection, schedule: Q01DX009 (ip), vehicle: Klucel (hydroxypropylcellulose) (HPC)
[9] = dose: 12.5 mg/kg/injection, schedule: Q01DX009 (ip), vehicle: saline
[10] = dose: 100.0 mg/kg/injection, schedule: Q01DX009 (ip), vehicle: saline
[11] = dose: 6.25 mg/kg/injection, schedule: Q01DX009 (ip), vehicle: saline
[12] = dose: 25.0 mg/kg/injection, schedule: Q01DX009 (ip), vehicle: saline
[13] = dose: 50.0 mg/kg/injection, schedule: Q01DX009 (ip), vehicle: saline
[14] = dose: 25.0 mg/kg/injection, schedule: Q01DX009 (ip), vehicle: Klucel (hydroxypropylcellulose) (HPC)
[15] = dose: 6.25 mg/kg/injection, schedule: Q01DX009 (ip), vehicle: Klucel (hydroxypropylcellulose) (HPC)
[16] = dose: 12.5 mg/kg/injection, schedule: Q01DX009 (ip), vehicle: Klucel (hydroxypropylcellulose) (HPC)

Measured: T/C

O=C/C(Cl)=C(/Cl)C(=O)O
inactive: dose: 1.25 mg/kg/injection, schedule: Q01DX009 (ip), vehicle: saline with Tween-80 99 % of control | dose: 2.5 mg/kg/injection, schedule: Q01DX009 (ip), vehicle: saline with Tween-80 86 % of control | [1] 89 % of control | [2] 92 % of control | [3] 102 % of control

Cc1cc2c(C(C)C)c(O)c(O)c(C=O)c2c(O)c1-c1c(C)cc2c(C(C)C)c(O)c(O)c(C=O)c2c1O
inactive: dose: 0.38 mg/kg/injection, schedule: Q01DX009 (ip), vehicle: saline with Tween-80 97 % of control | dose: 0.75 mg/kg/injection, schedule: Q01DX009 (ip), vehicle: saline with Tween-80 100 % of control | dose: 1.5 mg/kg/injection, schedule: Q01DX009 (ip), vehicle: saline with Tween-80 98 % of control | dose: 3.0 mg/kg/injection, schedule: Q01DX009 (ip), vehicle: saline with Tween-80 106 % of control

Cc1c2ccc3ccccc3c2c[n+]2ccccc12
inactive: [4] 104 % of control | [5] 100 % of control | [6] 112 % of control | [7] 96 % of control | [8] 100 % of control

[O-][n+]1c(CN2CCCCC2)nc2cccc3c2c1-c1ccccc1-3
inactive: dose: 12.5 mg/kg/injection, schedule: Q01DX009 (ip), vehicle: saline with Tween-80 98 % of control | dose: 25.0 mg/kg/injection, schedule: Q01DX009 (ip), vehicle: saline with Tween-80 88 % of control | dose: 50.0 mg/kg/injection, schedule: Q01DX009 (ip), vehicle: saline with Tween-80 102 % of control | dose: 100.0 mg/kg/injection, schedule: Q01DX009 (ip), vehicle: saline with Tween-80 91 % of control | dose: 400.0 mg/kg/injection, schedule: Q01DX009 (ip), vehicle: saline with Tween-80 103 % of control

Cc1c2ccncc2c(COC2OC(CO)C(O)C2O)c2c3ccccc3n(C)c12 (configuration not stated)
inactive: [9] 123 % of control | [10] 98 % of control | dose: 200.0 mg/kg/injection, schedule: Q01DX009 (ip), vehicle: saline 121 % of control

N=C(N)SCc1c2ccccc2c(CSC(=N)N)c2ccccc12
active: [11] 156 % of control | [9] 181 % of control | [12] 228 % of control | [13] 320 % of control

CN(CO)c1nc(N(C)CO)nc(N(C)CO)n1
active: [10] 153 % of control and 190 % of control
inactive: [9] 113 % of control and 115 % of control | [12] 118 % of control

O=P(O)(NCCCl)NCCCl
active: dose: 100.0 mg/kg/injection, schedule: Q01DX001 (ip), vehicle: saline with Tween-80 159 % of control and 161 % of control | dose: 200.0 mg/kg/injection, schedule: Q01DX001 (ip), vehicle: saline with Tween-80 168 % of control and 182 % of control
inactive: dose: 25.0 mg/kg/injection, schedule: Q01DX001 (ip), vehicle: saline with Tween-80 114 % of control and 119 % of control | dose: 50.0 mg/kg/injection, schedule: Q01DX001 (ip), vehicle: saline with Tween-80 115 % of control

Nc1nc(-c2ccccc2)c(N=O)c(=O)[nH]1
inactive: dose: 14.0 mg/kg/injection, schedule: Q01DX009 (ip), vehicle: saline with Tween-80 96 % of control | dose: 28.0 mg/kg/injection, schedule: Q01DX009 (ip), vehicle: saline with Tween-80 94 % of control | dose: 56.0 mg/kg/injection, schedule: Q01DX009 (ip), vehicle: saline with Tween-80 91 % of control | dose: 112.0 mg/kg/injection, schedule: Q01DX009 (ip), vehicle: saline with Tween-80 101 % of control

O=c1[nH]cnc2c1cnn2CN1CCOCC1
inactive: [14] 98 % of control and 99 % of control | dose: 50.0 mg/kg/injection, schedule: Q01DX009 (ip), vehicle: Klucel (hydroxypropylcellulose) (HPC) 100 % of control and 102 % of control | dose: 100.0 mg/kg/injection, schedule: Q01DX009 (ip), vehicle: Klucel (hydroxypropylcellulose) (HPC) 123 % of control and 100 % of control | dose: 200.0 mg/kg/injection, schedule: Q01DX009 (ip), vehicle: Klucel (hydroxypropylcellulose) (HPC) 99 % of control

CC(C)NC(=O)OCc1c(COC(=O)NC(C)C)c(-c2ccc(Cl)c(Cl)c2)n2c1CCC2
active: [6] 158 % of control | [1] 159 % of control | dose: 6.25 mg/kg/injection, schedule: Q01DX009 (ip), vehicle: distilled water + Tween-80 166 % of control and 169 % of control and 176 % of control | [7] 153 % of control and 175 % of control | [2] 196 % of control | [8] 209 % of control | [3] 191 % of control | dose: 40.0 mg/kg/injection, schedule: Q01DX009 (ip), vehicle: Klucel (hydroxypropylcellulose) (HPC) 235 % of control and 256 % of control | dose: 40.0 mg/kg/injection, schedule: Q01DX009 (ip), vehicle: saline with Tween-80 251 % of control
inactive: [5] 115 % of control | dose: 80.0 mg/kg/injection, schedule: Q01DX009 (ip), vehicle: saline with Tween-80 89 % of control

Nc1nc2ncc(CNc3ccc(C(=O)NC(CCC(=O)O)C(=O)O)cc3)nc2c(=O)[nH]1 (configuration not stated)
inactive: [11] 96 % of control | [9] 91 % of control | [12] 108 % of control | [13] 96 % of control | [10] 101 % of control

COC(=O)[C@@]12OC[C@]34[C@H]([C@@H](O)[C@@H]1O)[C@@]1(C)CC(=O)C(O)=C(C)[C@@H]1C[C@H]3OC(=O)[C@H](OC(=O)/C=C(/C)C(C)(C)O)[C@@H]24
inactive: dose: 0.25 mg/kg/injection, schedule: Q01DX009 (ip), vehicle: saline + alcohol 104 % of control | dose: 0.5 mg/kg/injection, schedule: Q01DX009 (ip), vehicle: saline + alcohol 110 % of control and 117 % of control | dose: 1.0 mg/kg/injection, schedule: Q01DX009 (ip), vehicle: saline + alcohol 119 % of control

Cc1cn(C2CC3[O][Sn]([c]4ccccc4)([c]4ccccc4)[O]CC3O2)c(=O)[nH]c1=O (configuration not stated)
inactive: dose: 25.0 mg/kg/injection, schedule: Q01DX009 (ip), vehicle: suspension in saline 102 % of control | dose: 50.0 mg/kg/injection, schedule: Q01DX009 (ip), vehicle: suspension in saline 103 % of control | dose: 100.0 mg/kg/injection, schedule: Q01DX009 (ip), vehicle: suspension in saline 113 % of control | dose: 200.0 mg/kg/injection, schedule: Q01DX009 (ip), vehicle: suspension in saline 93 % of control

S=C(N/N=C1/CCCC/C1=N/NC(=S)N1CCOCC1)N1CCOCC1
inactive: dose: 1.56 mg/kg/injection, schedule: Q01DX009 (ip), vehicle: saline with Tween-80 124 % of control | dose: 3.12 mg/kg/injection, schedule: Q01DX009 (ip), vehicle: saline with Tween-80 116 % of control | dose: 6.25 mg/kg/injection, schedule: Q01DX009 (ip), vehicle: saline with Tween-80 119 % of control

NC(CC(=O)CCl)C(=O)O (configuration not stated)
inactive: [15] 106 % of control | [16] 101 % of control

CC1=CC(=Nc2ccc(N(CCCl)CCCl)cc2)C=C(C)C1=O
active: [15] 150 % of control | [16] 163 % of control and 176 % of control | [14] 186 % of control

CC(=O)OC1C(C)OC(OC(=O)C2CCC3C(C2)OC2(CC(OC(=O)/C=C/c4ccccc4)C(C)CO2)C32CO2)C(OC2OC(C)C(O)C(OC(C)=O)C2O)C1O (configuration not stated)
inactive: dose: 0.75 mg/kg/injection, schedule: Q01DX009 (ip), vehicle: saline + alcohol 100 % of control | dose: 1.5 mg/kg/injection, schedule: Q01DX009 (ip), vehicle: saline + alcohol 99 % of control | dose: 3.0 mg/kg/injection, schedule: Q01DX009 (ip), vehicle: saline + alcohol 99 % of control | dose: 4.0 mg/kg/injection, schedule: Q01DX009 (ip), vehicle: saline + Tween-80 + alcohol 122 % of control
active: dose: 16.0 mg/kg/injection, schedule: Q01DX009 (ip), vehicle: saline + Tween-80 + alcohol 161 % of control | dose: 32.0 mg/kg/injection, schedule: Q01DX009 (ip), vehicle: saline + Tween-80 + alcohol 174 % of control | dose: 64.0 mg/kg/injection, schedule: Q01DX009 (ip), vehicle: saline + Tween-80 + alcohol 201 % of control

CCCCCCCCCCNCCS
inactive: [6] 88 % of control | [7] 99 % of control | [8] 104 % of control

C=C1C(C)C2C(Cc3ccccc3)NC(=O)C23C(OC(C)=O)C=CC(C)(O)C(=O)C(C)C/C=C/C3C1O (configuration not stated)
inactive: dose: 0.31 mg/kg/injection, schedule: Q01DX009 (ip), vehicle: Klucel (hydroxypropylcellulose) (HPC) 101 % of control | dose: 0.63 mg/kg/injection, schedule: Q01DX009 (ip), vehicle: Klucel (hydroxypropylcellulose) (HPC) 98 % of control | [4] 109 % of control | [5] 101 % of control | [6] 106 % of control
